Test results published in US5541163A, “Renin inhibiting N-(2-amino-2-oxoethyl)butanediamide derivatives” (Bio-Mega/Boehringer Ingelheim Research Inc., priority 1993, dated 1996).

target: T1, human renin (Homo sapiens, UniProt P00797); experiment: Plasma renin assay (inhibition of human renin, angiotensin I by RIA); format: biochemical; conditions: human plasma pool, pH 6.0, 2 h incubation at 37°
T1 construct: A human plasma pool is used as the source of both the substrate (angiotensinogen) and the enzyme (renin); from tissue; host or cells: human plasma pool
T1 sequence (P00797 67-406): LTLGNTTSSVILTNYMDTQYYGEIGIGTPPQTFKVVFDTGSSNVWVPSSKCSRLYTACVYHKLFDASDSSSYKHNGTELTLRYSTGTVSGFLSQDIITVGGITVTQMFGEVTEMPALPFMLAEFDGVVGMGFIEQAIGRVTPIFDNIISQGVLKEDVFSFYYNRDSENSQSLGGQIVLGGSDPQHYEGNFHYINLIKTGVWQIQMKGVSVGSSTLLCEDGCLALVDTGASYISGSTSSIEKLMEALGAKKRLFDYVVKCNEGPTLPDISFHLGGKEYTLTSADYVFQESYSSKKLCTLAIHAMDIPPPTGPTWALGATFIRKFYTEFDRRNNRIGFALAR
Summary of the method: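 Pooled human plasma supplies both renin and angiotensinogen; inhibitor in MES/1% HSA buffer (1% DMSO final) incubated 2 h at 37° at pH 6.0. Angiotensin I generated quantified by radioimmunoassay, inhibition relative to no-inhibitor control, IC50 by nonlinear regression.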

Row | Structure (SMILES) | IC50
1 | CC(C)C[C@H](O)[C@H](O)[C@H](CC1CCCCC1)NC(=O)[C@@H](CC(=O)N(CC(=O)N(C)C)CC1CCCCC1)Cc1csc(N)n1 [Compound 48, N^4-(cyclohexylmethyl)-N^4-[2-(dimethylamino)-2-oxoethyl]-N^1-[1(S)-(cyclohexylmethyl)-2(R),3(S)-dihydroxy-5-methylhexyl]-2(R)-[(2-amino-4-thiazolyl)methyl]butanediamide] | 0.9 nM
2 | CC(C)C[C@H](O)[C@H](O)[C@H](CC1CCCCC1)NC(=O)[C@@H](CC(=O)N(CC(=O)N1CCOCC1)CC1CCCCC1)Cc1csc(N)n1 [Compound 49] | 1.5 nM
3 | CC(C)C[C@H](O)[C@H](O)[C@H](CC1CCCCC1)NC(=O)[C@@H](CC(=O)N(CC(=O)N(C)CCc1ccccn1)CC1CCCCC1)Cc1csc(N)n1 [Compound 50, N^4-(cyclohexylmethyl)-N^4 -{2-{methyl-[2-(2-pyridinyl)ethyl]-amino}-2-oxoethyl}-N^1-[1(S)-(cyclohexylmethyl)-2(R),3(S)-dihydroxy-5-methylhexyl]-2(R)-[(2-amino-4-thiazolyl)methyl]butanediamide] | 2.2 nM
4 | CC(C)C[C@H](O)[C@H](O)[C@H](CC1CCCCC1)NC(=O)[C@@H](CC(=O)N(CCc1ccccn1)CC(=O)N(C)C)CC1CC1 [Compound 51, N^4-[2-(dimethylamino)-2-oxoethyl]-N^4-[2-(2-pyridinyl)ethyl]-N^1-(1(S)-(cyclohexylmethyl)-2(R),3(S)-dihydroxy-5-methylhexyl]-2(R)-(cyclopropylmethyl)butanediamide] | 145 nM
5 | CC(C)C[C@H](O)[C@H](O)[C@H](CC1CCCCC1)NC(=O)[C@@H](CC(=O)N(CC(=O)N(C)C)Cc1ccccc1)Cc1csc(N)n1 [Compound 52, N^4-benzyl-N^1-[2-(dimethylamino)-2-oxoethyl)-N^1-[1(S)-(cyclohexylmethyl)-2(R),3(S)-dihydroxy-5-methylhexyl]-2(R)-[(2-amino-4-thiazolyl)-methyl]butanediamide] | 3 nM
6 | CC(C)C[C@H](O)[C@H](O)[C@H](CC1CCCCC1)NC(=O)[C@@H](CC(=O)N(CC(=O)N(C)CCc1ccccn1)Cc1ccccc1)Cc1cscn1 [Compound 53, N^4-benzyl-N^4 -{2-{methyl[2-(2-pyridinyl)ethyl]amino}-2-oxoethyl}-N^1-[1(S)-(cyclohexylmethyl)-2(R),3(S)-dihydroxy-5-methylhexyl]-2(R)-(4-thiazolylmethyl)butanediamide] | 2.5 nM
7 | CC(C)C[C@H](O)[C@H](O)[C@H](CC1CCCCC1)NC(=O)[C@@H](CC(=O)N(CC(=O)N(C)C)[C@@H](C)c1ccccc1)Cc1nccs1 [Compound 54, N^4-[2-(dimethylamino)-2-oxoethyl]-N^4-[1(S)-phenylethyl]-N^1-[1(S)-(cyclohexylmethyl)-2(R),3(S)-dihydroxy-5-methylhexyl]-2(S)-(2-thiazolylmethyl)butanediamide] | 4 nM
8 | CC(C)C[C@H](O)[C@H](O)[C@H](CC1CCCCC1)NC(=O)[C@@H](CC(=O)N(CC(=O)N(C)C)CC1CCCCC1)Cc1ccccc1 [Compound 55, N^4-(cyclohexylmethyl)-N^4-[2-(dimethylamino)-2-oxoethyl]-N^1-[1(S)-(cyclohexylmethyl)-2(R),3(S)-dihydroxy-5-methylhexyl]-2(R)-(phenylmethyl)butanediamide] | 16 nM
9 | CC(C)C[C@H](O)[C@H](O)[C@H](CC1CCCCC1)NC(=O)[C@@H](CC(=O)N(CC(=O)N(C)CCc1ccccn1)Cc1ccccc1)Cc1csc(N)n1 [Compound 57, N^4-benzyl-N^4 -{2-{methyl[2-(2-pyridinyl)ethyl]amino}-2-oxoethyl}-N^1-[1(S)-(cyclohexylmethyl)-2(R),3(S)-dihydroxy-5-methylhexyl]-2(R)-[(2-amino-4-thiazolyl)methyl]-butanediamide] | 1 nM
10 | CC(C)C[C@H](O)[C@H](O)[C@H](CC1CCCCC1)NC(=O)[C@@H](CC(=O)N(CC(=O)N(C)C)CC1CCCCC1)Cc1cccnc1 [Compound 58, N^4-(cyclohexylmethyl)-N^4-[2-(dimethylamino)-2-oxoethyl]-N^1-[1(S)-(cyclohexylmethyl)-2(R),3(S)-dihydroxy-5-methylhexyl]-2(R)-(3-pyridinylmethyl)butanediamide] | 10 nM
11 | CC(C)C[C@H](O)[C@H](O)[C@H](CC1CCCCC1)NC(=O)[C@@H](CC(=O)N(CC(=O)N1CCOCC1)CC1CCCCC1)Cc1cccnc1 [Compound 59, N^4-(cyclohexylmethyl)-N^4-(2-morpholino-2-oxoethyl)-N^1-[1(S)-(cyclohexylmethyl)-2(R),3(S)-dihydroxy-5-methylhexyl]-2(R)-(3-pyridinylmethyl)butanediamide] | 10 nM
12 | CC(C)C[C@H](O)[C@H](O)[C@H](CC1CCCCC1)NC(=O)[C@@H](CC(=O)N(CCc1ccccc1)CC(=O)N(C)C)Cc1csc(N)n1 [Compound 60, N^4-[2-(dimethylamino)-2-oxoethyl]-N^4-(2-phenylethyl)-N^1-[1(S)-(cyclohexylmethyl)-2(R),3(S)-dihydroxy-5-methylhexyl]-2(R)-[(2-amino-4-thiazolyl)methyl]butanediamide] | 5 nM
13 | CC(C)C[C@H](O)[C@H](O)[C@H](CC1CCCCC1)NC(=O)[C@@H](CC(=O)N(CC(=O)N(C)C)C[C@@H](C)c1ccccc1)Cc1csc(N)n1 [Compound 61, N^4-[2-(dimethylamino)-2-oxoethyl]-N^4-[2(S)-phenylpropyl]-N^1-[1(S)-(cyclohexylmethyl)-2(R),3(S)-dihydroxy-5-methylhexyl]-2(R)-[(2-amino-4-thiazolyl)methyl]-butanediamide] | 3.5 nM
14 | COCOC1CCN(C(=O)CN(CC2CCCCC2)C(=O)C[C@@H](Cc2csc(N)n2)C(=O)N[C@@H](CC2CCCCC2)[C@@H](O)[C@@H](O)CC(C)C)CC1 [Compound 62, N^4 -{2-[4-(methoxymethoxy)piperidinyl]-2-oxoethyl}-N^4-(cyclohexylmethyl)-N^1-[1(S)-(cyclohexylmethyl)-2(R),3(S)-dihydroxy-5-methylhexyl]-2(R)-[(2-amino-4-thiazolyl)methyl]-butanediamide] | 3 nM
15 | CC(C)C[C@H](O)[C@H](O)[C@H](CC1CCCCC1)NC(=O)[C@@H](CC(=O)N(CC(=O)N(C)CCc1ccccn1)[C@@H](C)C1CCCCC1)Cc1csc(N)n1 [Compound 63, N^4-[1(S)-cyclohexylethyl]-N^4 -{2-{methyl[2-(2-pyridinyl)ethyl]-amino}-2-oxoethyl}-N^1-[1(S)-(cyclohexylmethyl)-2(R),3(S)-dihydroxy-5-methylhexyl]-2(R)-[(2-amino-4-thiazolyl)methyl]butanediamide] | 1 nM
16 | CC(C)C[C@H](O)[C@H](O)[C@H](CC1CCCCC1)NC(=O)[C@@H](CC(=O)N(CC(=O)N(C)C)Cc1ccccn1)Cc1csc(N)n1 [Compound 64, N^4-[2-(dimethylamino)-2-oxoethyl]-N^4-(2-pyridinylmethyl)-N^1-[1(S)-(cyclohexylmethyl)-2(R),3(S)-dihydroxy-5-methylhexyl]-2(R)-[(2-amino-4-thiazolyl)methyl]-butanediamide] | 10 nM
17 | CN(CCc1ccccn1)C(=O)CN(CC1CCCCC1)C(=O)C[C@@H](Cc1csc(N)n1)C(=O)N[C@@H](CC1CCCCC1)[C@@H](O)CSc1nnnn1C [Compound 65, N^4-(cyclohexylmethyl)-N^4 -{2-{methyl-[2-(2-pyridinyl)ethyl]amino}-2-oxoethyl}-N^1 -{1(S)-(cyclohexylmethyl)-2(R)-hydroxy-3-[(l-methyl-1H-tetrazol-5-yl)thio]propyl}-2(R)-[(2-amino-4-thiazolyl)methyl]-butanediamide] | 45 nM
